# Experimental data published in ChEMBL document CHEMBL1128570, “Binding of 5H-dibenzo[a,d]cycloheptene and dibenz[b,f]oxepin analogues of clozapine to dopamine and serotonin receptors” (J Med Chem, 1995).
# Assays:
# [1] = target: T1, 5-hydroxytryptamine receptor 2C (Rattus norvegicus, UniProt P08909); assay: Ability to inhibit the binding of iodine-125-labelled lysergic acid diethylamide([125I]-LSD) to the S-2C serotonin receptor.
# T1 sequence (P08909 whole entry): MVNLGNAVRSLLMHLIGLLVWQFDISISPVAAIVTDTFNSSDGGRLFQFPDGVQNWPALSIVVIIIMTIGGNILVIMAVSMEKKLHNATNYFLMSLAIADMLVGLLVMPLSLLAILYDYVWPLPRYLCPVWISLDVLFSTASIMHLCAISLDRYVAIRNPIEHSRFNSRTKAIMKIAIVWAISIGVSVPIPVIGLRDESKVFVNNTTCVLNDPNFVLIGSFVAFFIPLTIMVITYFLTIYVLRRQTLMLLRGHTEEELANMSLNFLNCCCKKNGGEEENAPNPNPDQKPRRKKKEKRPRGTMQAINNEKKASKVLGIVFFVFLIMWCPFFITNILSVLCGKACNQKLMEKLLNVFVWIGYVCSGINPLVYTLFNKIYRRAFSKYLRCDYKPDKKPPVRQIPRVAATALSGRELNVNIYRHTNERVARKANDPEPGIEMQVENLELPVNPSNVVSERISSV
# [2] = target: T2, 5-hydroxytryptamine receptor 2A (Rattus norvegicus, UniProt P14842); assay: Ability to inhibit the binding of iodine-125-labelled lysergic acid diethylamide([125I]-LSD) to the S-2A serotonin receptor.
# T2 sequence (P14842 whole entry): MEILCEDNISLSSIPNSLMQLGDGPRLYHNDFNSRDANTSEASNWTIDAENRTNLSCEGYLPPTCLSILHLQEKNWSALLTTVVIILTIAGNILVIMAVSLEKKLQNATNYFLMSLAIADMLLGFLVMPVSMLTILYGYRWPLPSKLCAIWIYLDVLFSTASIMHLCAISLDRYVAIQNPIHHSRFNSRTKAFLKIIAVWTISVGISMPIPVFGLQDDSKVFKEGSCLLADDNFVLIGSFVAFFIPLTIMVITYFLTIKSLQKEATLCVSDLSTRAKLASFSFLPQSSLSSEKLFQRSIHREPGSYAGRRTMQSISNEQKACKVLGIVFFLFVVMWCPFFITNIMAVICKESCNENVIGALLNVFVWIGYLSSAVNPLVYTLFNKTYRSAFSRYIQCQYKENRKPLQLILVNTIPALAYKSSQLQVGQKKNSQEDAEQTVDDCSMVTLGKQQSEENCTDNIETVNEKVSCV
# D(2) dopamine receptor = D(2) dopamine receptor (Homo sapiens, UniProt P14416); assay: Ability to inhibit the binding of [3H]spiperone to the Dopamine receptor D2L in COS7 cells; type: cell-based, COS-7
# D(2) dopamine receptor, sequence (P14416 whole entry): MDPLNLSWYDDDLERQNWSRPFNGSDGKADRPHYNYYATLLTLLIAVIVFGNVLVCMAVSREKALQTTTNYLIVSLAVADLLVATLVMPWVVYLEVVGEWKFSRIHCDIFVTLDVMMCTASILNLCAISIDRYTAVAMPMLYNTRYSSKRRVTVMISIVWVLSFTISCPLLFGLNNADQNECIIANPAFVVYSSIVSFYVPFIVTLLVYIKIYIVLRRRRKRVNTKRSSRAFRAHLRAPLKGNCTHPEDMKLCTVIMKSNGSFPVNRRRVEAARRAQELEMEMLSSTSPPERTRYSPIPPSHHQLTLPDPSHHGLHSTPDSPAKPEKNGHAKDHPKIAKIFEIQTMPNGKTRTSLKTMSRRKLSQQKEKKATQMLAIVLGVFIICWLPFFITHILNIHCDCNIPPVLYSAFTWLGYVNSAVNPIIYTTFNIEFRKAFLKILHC
# [3] = Ratio of Ki value towards dopamine D2L receptor to that of serotonin S-2A receptor.
# D(4) dopamine receptor = target: T3, D(4) dopamine receptor (Homo sapiens, UniProt P21917); assay: Ability to inhibit the binding of [3H]spiperone to the Dopamine receptor D4 in COS7 cells; type: cell-based, COS-7
# T3 sequence (P21917 whole entry): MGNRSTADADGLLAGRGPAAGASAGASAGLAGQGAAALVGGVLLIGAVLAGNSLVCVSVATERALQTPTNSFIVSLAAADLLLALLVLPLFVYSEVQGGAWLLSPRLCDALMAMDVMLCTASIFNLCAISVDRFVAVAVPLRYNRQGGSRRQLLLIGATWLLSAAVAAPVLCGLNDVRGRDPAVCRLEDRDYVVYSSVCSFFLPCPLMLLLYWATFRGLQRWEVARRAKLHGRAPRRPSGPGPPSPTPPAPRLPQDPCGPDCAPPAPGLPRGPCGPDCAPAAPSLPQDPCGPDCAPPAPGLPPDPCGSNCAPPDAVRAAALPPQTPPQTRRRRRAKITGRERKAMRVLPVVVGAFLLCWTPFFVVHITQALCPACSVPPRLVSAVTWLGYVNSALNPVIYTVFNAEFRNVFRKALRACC
# [4] = target: T2, 5-hydroxytryptamine receptor 2A; assay: Ability to inhibit the binding of iodine-125-labelled lysergic acid diethylamide([125I]-LSD) to the S-2A serotonin receptor in NIH3T3 cell line membranes; type: cell-based
# [5] = target: T1, 5-hydroxytryptamine receptor 2C; assay: Ability to inhibit the binding of iodine-125-labelled lysergic acid diethylamide([125I]-LSD) to the S-2C serotonin receptor in NIH3T3 cell line membranes; type: cell-based
Structure (SMILES),Ki [1] [nM],Ki [2] [nM],Ki (D(2) dopamine receptor) [nM],Ratio [3],Ki (D(4) dopamine receptor) [nM],Ki [4] [nM],Ki [5] [nM]
CCN1CC=C(C2=Cc3ccccc3Cc3ccccc32)CC1,7,4.5,44,9.8,28,,
CN1CCC(C2=Cc3ccccc3Oc3ccccc32)CC1,,,82,30,9.5,3,8
CCN1CC=C(C2=Cc3ccccc3Oc3ccccc32)CC1,,,61,10,26,6,14
CN1CCN(C2=Cc3ccccc3Oc3ccccc32)CC1,,,,5,,,
C=CCN1CC=C(C2=Cc3ccccc3Cc3ccccc32)CC1,46,20,83,4.2,60,,
C=CCN1CC=C(C2=Cc3ccccc3Oc3ccccc32)CC1,,,110,5,37,22,51
CN1CCN(C2=Cc3ccccc3Oc3ccc(Cl)cc32)CC1,,,,0.8,,,

# Other lines, results leading:
Ki [1] [nM],Ki [2] [nM],Ki (D(2) dopamine receptor) [nM],Ratio [3],Ki (D(4) dopamine receptor) [nM],Ki [4] [nM],Ki [5] [nM],Structure (SMILES)
,,,,29,6,20,CN1CC=C(C2=Cc3ccccc3Oc3ccccc32)CC1
1200,760,440,0.58,100,,,CC(C)=C1c2ccccc2C=C(C2=CCN(C)CC2)c2cc(Cl)ccc21
,,,0.48,,,,CC(C)=C1c2ccccc2C=C(C2=CCN(C)CC2)c2ccccc21
,,,9.4,,,,CC1c2ccccc2C=C(C2=CCN(C)CC2)c2ccccc21 (configuration not stated)
14,6,89,15,12,,,CN1CC=C(C2=Cc3ccccc3Cc3ccccc32)CC1
